The source of these data is US11912699B2, “Tau-protein targeting compounds and associated” (Arvinas Operations, Inc., priority 2019, dated 2024).

SMILES strings stand for the structures. Read-outs that look alike come from different tables or passages of the source. A value given as a limit tells only on which side of the number the result lay.

In general, DC50 refers to the midpoint of the concentration-degradation curve. Higher therefore signals a less potent degrader.

Test [1] concerns seeding competent tau species (MC1-positive seeded conformational tau) in ChoK1-Tau P301L cells. Nature of the test: Tg2508 ex-vivo seeding of P301L CHO cells, MC1 high content image analysis. In kind it is cell-based, Tg2508 mice. Conditions: single parenteral treatment 15 mpk, 24 hours. As to the method: FIGS. 4A, 4B, and 4C. […] Briefly, ChoK1-Tau P301L cells were treated with K18 tau preformed fibrils (PFFs) or extracts from Tg2508 brain samples. Seeded conformational tau species were detected by MC1 antibody positivity and quantified as MC1 spot average intensity per cell on the Image Express high content platform.

The next test deals with T1, P301L tau (Homo sapiens, UniProt P10636, P618L).
T1 construct: expressed in transfected cells
Kind of test: Tau degradation in doxycycline-induced ChoK1-Tau P301L clone D1 cells. In kind it is cell-based. As to the method: FIGS. 2A, 2B, and 2C. Tau targeting bifunctional molecules are potent P301L tau degraders in vitro, which depends upon both binding to the tau binding moiety and the E3 ligase binding moiety (ULM). (2A) Tau expression was induced by addition (+) of doxycycline (1 μg/ml) to ChoK1-Tau P301L clone D1 for 24 hours followed by a 24 hour doxycycline washout period where only bifunctional molecule was present.

In test [2] the target is T2, seeded conformational tau (MC1) (Homo sapiens, UniProt P10636, P618L).
T2 construct: tissue Taconic; host or cells: cortex / hippocampus of Tg2508 transgenic mice, sarkosyl-insoluble fraction or brain extract
Nature of the test: Tg2508 ex-vivo tau seeding assay in ChoK1-Tau P301L cells (MC1 high content imaging). Type of test: cell-based, mice. Conditions: single parenteral treatment 15 mpk, 24 hours; MC1 spot intensity in ChoK1-Tau P301L cells. As to the method: FIGS. 4A, 4B, and 4C. Briefly, ChoK1-Tau P301L cells were treated with K18 tau preformed fibrils (PFFs) or extracts from Tg2508 brain samples (as described in Materials and Methods; PFF generation modified from Holmes et al. PNAS. 2014. Proteopathic tau seeding predicts tauopathy in vivo. Oct. 111 (41) E4376-85). Seeded conformational tau species are detected by MC1 antibody positivity and quantified as MC1 spot average intensity per cell on the Image Express™ high content platform.
In vitro tau Seeding Assay for FIGS. 4A, 4B, and 4C. Tau P301L T-Rex CHO Cells were plated on BioCoat Collagen 96 well microplates that were also poly-D-lysine coated. Media was removed, cells were washed with DPBS, trypsinized and plated at 50,000 cells per mL with Doxycycline […] and no doxycycline control for 24 hours. […]

A further test has as its target T3, Tau P301L (Homo sapiens, UniProt P10636, P618L).
T3 construct: expressed in transfected cells
Kind of test: In vitro tau degradation assay in CHOK1 Tau P301L cells (sarkosyl insoluble tau, WES). In kind it is cell-based. The following applies: for remaining activity at 1 µM: CHO-K1, relative to DMSO doxycycline control, read-out: Tau Protein Degradation effect at 1 μM. In short, it runs like this: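 T-Rex CHOK1 clone D1 with doxycycline-inducible (1 μg/ml) Tau P301L treated 48 h with compound at 1 μM, doxycycline removed for the final 24 h. Sarkosyl-insoluble tau quantified by WES capillary electrophoresis with Tau1 antibody, expressed relative to DMSO doxycycline control and binned as ≤50% or >50% remaining.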

Setting [3] is: 10-fold molar excess pomalidomide.
Setting [4] is: similar competition (10-fold molar excess) with flortaucipir.
[5] abbreviates: remaining tau protein in sarkosyl insoluble pellet, CHOK1 Tau P301L cells treated 48 hours with test compound at 1 μM, doxycycline removed for the last 24 hours.
[6] abbreviates: CHOK1 Tau P301L cells, remaining tau in sarkosyl insoluble pellet, 48 hours with test compound at 1 μM, doxycycline removed for last 24 hours.

T3 sequence (P10636 1-441 isoform P10636-8 P301L): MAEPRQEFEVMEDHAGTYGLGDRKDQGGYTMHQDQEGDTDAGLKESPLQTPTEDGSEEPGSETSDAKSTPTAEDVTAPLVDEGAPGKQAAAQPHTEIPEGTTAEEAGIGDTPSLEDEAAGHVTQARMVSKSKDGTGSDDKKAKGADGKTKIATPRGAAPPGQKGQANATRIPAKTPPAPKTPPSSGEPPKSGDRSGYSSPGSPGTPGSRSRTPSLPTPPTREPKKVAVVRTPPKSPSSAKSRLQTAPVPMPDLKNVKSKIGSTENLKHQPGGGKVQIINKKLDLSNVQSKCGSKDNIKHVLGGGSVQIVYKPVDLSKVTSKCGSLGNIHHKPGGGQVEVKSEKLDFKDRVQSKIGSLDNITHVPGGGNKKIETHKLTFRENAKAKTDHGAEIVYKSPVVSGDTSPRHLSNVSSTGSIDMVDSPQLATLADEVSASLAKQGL
T1 sequence (P10636 1-441 isoform P10636-8 P301L): as above
T2 sequence (P10636 1-383 isoform P10636-6 P243L): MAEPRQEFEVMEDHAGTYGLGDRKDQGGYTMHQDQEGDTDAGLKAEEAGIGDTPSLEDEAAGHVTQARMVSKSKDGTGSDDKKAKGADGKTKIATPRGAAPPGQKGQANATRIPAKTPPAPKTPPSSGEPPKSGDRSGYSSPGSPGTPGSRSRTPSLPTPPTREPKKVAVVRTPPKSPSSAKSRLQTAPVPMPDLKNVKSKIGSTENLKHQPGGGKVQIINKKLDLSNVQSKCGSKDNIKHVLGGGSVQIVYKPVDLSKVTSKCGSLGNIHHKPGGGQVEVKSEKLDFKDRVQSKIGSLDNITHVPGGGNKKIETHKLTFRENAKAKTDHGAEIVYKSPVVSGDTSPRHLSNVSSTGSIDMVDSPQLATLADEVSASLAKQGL

As for `Cn1c2ccncc2c2ccc(-c3ccc(O[C@H]4C[C@H](OC5CCN(CCCCCOc6ccc7c(c6)C(=O)N(C6CCC(=O)NC6=O)C7=O)CC5)C4)nc3)cc21` (stereo partly shown) [Compound 82], the “seeding competent tau species in Tg2508 cortical brain extracts (MC1 spot average intensity per cell)” value in test [1] is given as “effectively degraded”. Besides, at P301L tau (250 nM, 125 nM or 50 nM, ChoK1-Tau P301L clone D1, vs 0.1% DMSO), the degradation of tau entry was “concentration-dependent degradation of tau”. The “tau degradation under competition with E3 ligase ligand pomalidomide” value on P301L tau (setting [3]) is given as “completely inhibited”. Also, the DC50 at P301L tau (ChoK1-Tau P301L clone D1, 24 h doxycycline (1 μg/ml) induction, then 24 h washout with only compound present, vs 0.1% DMSO) is below 0.05 µM; at Tau P301L (ChoK1-Tau P301L clone D1, doxycycline 1 μg/ml, 250, 125, 50 nM), below 0.05 µM. Also, the “tau degradation under competition with tau warhead ligand flortaucipir” value on P301L tau (setting [4]) is recorded as “Partial inhibition”. In test [2], the “seeding competent tau species in Tg2508 cortical brain extracts” value is “effectively degraded”. Also, the “tau degradation under competition with E3 ligase ligand” value at Tau P301L (setting [3]) is listed as “completely inhibited”. Also, the “degradation of tau compared to 0.1% DMSO control” value on Tau P301L (ChoK1-Tau P301L clone D1, 250 nM, 125 nM or 50 nM) was “concentration-dependent degradation of tau”. Besides, the “tau degradation under competition with tau warhead ligand” value on Tau P301L (setting [4]) is listed as “Partial inhibition”.
With `O=C1CCC(N2C(=O)c3ccc(N4CCN(CC5CCN(C[C@H]6C[C@H](Oc7ncc(-c8ccc9c%10cnccc%10n(C(F)F)c9c8)cc7F)C6)CC5)CC4)cc3C2=O)C(=O)N1` (stereo partly shown) [Compound 667, 5-(4-((1-(((1r,3r)-3-((5-(5-(difluoromehtyl)-5H-pyrido[4,3-b]indol-7-yl)-3-fluoropyridin-2-yl)oxy)cyclobutyl)methyl)piperidin-4-yl)methyl)piperazin-1-yl)-2-(2,6-dioxopiperidin-3-yl) isoindoline-1,3-dione], the remaining activity at 1 µM at Tau P301L (setting [5]) was below 50%.
On the same count and under the same terms, in the case of `O=C1CCC(N2C(=O)c3ccc(N4CCN(CCC5CCN(c6ncc(-c7ccc8c9cnccc9n(CC(F)(F)F)c8n7)cc6F)CC5)CC4)cc3C2=O)C(=O)N1` (stereo not shown) [Compound 673, 2-(2,6-dioxopiperidin-3-yl)-5-(4-(2-(1-(3-fluoro-5-(9-(2,2,2-trifluoroethyl)-9H-pyrrolo[2,3-b:4,5-c′]dipyridin-2-yl)pyridin-2-yl)piperidin-4-yl)ethyl)piperazin-1-yl)isoindoline-1,3-dione] it was below 50%.
For the compound `O=C1CCC(N2C(=O)c3ccc(N4CCN(CCC5CCN(c6ncc(-c7ccc8c9cnccc9n(C(F)F)c8n7)cc6F)CC5)CC4)cc3C2=O)C(=O)N1` (stereo not shown) [Compound 674, 5-(4-(2-(1-(5-(9-(difluoromethyl)-9H-pyrrolo[2,3-b:4,5-c′]dipyridin-2-yl)-3-fluoropyridin-2-yl)piperidin-4-yl)ethyl)piperazin-1-yl)-2-(2,6-dioxopiperidin-3-yl)isoindoline-1,3-dione], on Tau P301L (setting [5]), the remaining activity at 1 µM is below 50%.
Still for that read-out and setting: the same measure for `O=C1CCC(N2C(=O)c3ccc(N4CCN(CCC5CCN(c6c(F)cc(-c7ccc8c9cnccc9n(C(F)F)c8n7)cc6F)CC5)CC4)cc3C2=O)C(=O)N1` (stereo not shown) [Compound 676, 5-(4-(2-(1-(4-(9-(difluoromethyl)-9H-pyrrolo[2,3-b:4,5-c′]dipyridin-2-yl)-2,6-difluorophenyl)piperidin-4-yl)ethyl)piperazin-1-yl)-2-(2,6-dioxopiperidin-3-yl)isoindoline-1,3-dione]: below 50%; for `CC(C)(CC1CCN(c2ncc(-c3ccc4c5cnccc5n(C(F)F)c4c3)cc2F)CC1)N1CCN(c2ccc3c(c2)C(=O)N(C2CCC(=O)NC2=O)C3=O)CC1` (stereo not shown) [Compound 677, 5-(4-(1-(1-(5-(5-(difluoromethyl)-5H-pyrido[4,3-b]indol-7-yl)-3-fluoropyridin-2-yl)piperidin-4-yl)-2-methylpropan-2-yl)piperazin-1-yl)-2-(2,6-dioxopiperidin-3-yl)isoindoline-1,3-dione]: below 50%; for `O=C1CCC(N2C(=O)c3ccc(N4CCN(CCC5CCN(c6ccc(-c7c(F)cc8c9cnccc9n(C(F)F)c8c7F)cn6)CC5)CC4)cc3C2=O)C(=O)N1` (stereo not shown) [Compound 679, 5-(4-(2-(1-(5-(5-(difluoromethyl)-6,8-difluoro-5H-pyrido[4,3-b]indol-7-yl)pyridin-2-yl)piperidin-4-yl)ethyl)piperazin-1-yl)-2-(2,6-dioxopiperidin-3-yl)isoindoline-1,3-dione]: below 50%.
Consider `CN(C)c1ccn2cc(-c3cnc(N4CCC(CCN5CCN(c6ccc7c(c6)C(=O)N(C6CCC(=O)NC6=O)C7=O)CC5)CC4)c(F)c3)nc2c1` (stereo not shown) [Compound 680, 5-(4-(2-(1-(5-(7-(dimethylamino)imidazo [1,2-a]pyridin-2-yl)-3-fluoropyridin-2-yl)piperidin-4-yl)ethyl)piperazin-1-yl)-2-(2,6-dioxopiperidin-3-yl)isoindoline-1,3-dione], for which, at Tau P301L (setting [6]), the remaining activity at 1 µM is below 50%.
Still for that read-out and setting: the same measure for `O=C1CCC(N2Cc3c(cccc3N3CCN(CCC4CCN(c5ncc(-c6ccc7c8cnccc8n(C(F)F)c7c6)cc5F)CC4)CC3)C2=O)C(=O)N1` (stereo not shown) [Compound 682, 3-(4-(4-(2-(1-(5-(5-(difluoromethyl)-5H-pyrido[4,3-b]indol-7-yl)-3-fluoropyridin-2-yl)piperidin-4-yl)ethyl)piperazin-1-yl)-1-oxoisoindolin-2-yl)piperidine-2,6-dione]: below 50%; for `O=C1CCC(N2C(=O)c3ccc(N4CCC(OC5CCN(C[C@H]6C[C@H](Oc7ncc(-c8ccc9c%10cnccc%10n(C(F)F)c9c8)cc7F)C6)CC5)CC4)cc3C2=O)C(=O)N1` (stereo partly shown) [Compound N637]: below 50%.
